Test results reported in patent US6355799B1, “Substituted benzene compounds, process for their preparation, and herbicidal and defoliant compositions containing them” (ISK Americas Incorporated, priority 1997, dated 2002).

What was measured:
Assay type in all cases: in vivo
[1] = test system: redroot pigweed (Amaranthus retroflexus, AMARE); test: Pre-emerge test, greenhouse herbicide activity screening; conditions: for Pre-emerge herbicidal activity, phytotoxicity rating AMARE: rating scale 0-100, 14 days after application; for phytotoxicity rating AMARE: pre-emerge, 14 days after application, scale 0-100
Source text: (§1) A standard greenhouse herbicide activity screening system was used to evaluate the herbicidal efficacy and crop safety of these test compounds. Seven broadleaf weed species including redroot pigweed (Amaranthus retroflexus, AMARE, velvetleaf (Abutilon theophrasti, ABUTH), sicklepod (Cassia obtusifolia, CASOB), ivyleaf morningglory (Ipomoea hederacea, IPOHE), lambsquarters (Chenopodium album, CHEAL), common ragweed (Ambrosia artemisizfolia L., AMBEL), and cocklebur (Xanthium strumarium, XANST) were used as test species. Four grass weed species including green foxtail (Setaria viridis, SETVI), barnyardgrass (Echinochloa crus-galli, ECHCG), johnsongrass (Sorghum halepense, SORHA), and large crabgrass (Digitaria sanguinalis, DIGSA) were also used. In addition, three crop species, field corn (Zea mays L., var. Dekalb 535, CORN), soybean (Glycine max L., var. Pella 86, SOY), and is upland rice (Oryza sp., var. Tebonnet, RICE) were included.
(§2) All plants were grown in 10 cm square plastic pots which were filled with a sandy loam soil mix. For pre-emerge tests, seeds were planted one day prior to application of the test compounds. For post-emerge tests, seeds were planted 8-21 days prior to the test to allow emergence and good foliage development prior to application of the test substances. At the time of the post-emerge application, plants of all species were usually at the 2-3 leaf stage of development.
All test compounds Were dissolved in acetone and applied to the test units in a volume of 187 l /ha. […] Plants were arranged on a shelf so that the top of the canopy (post-emerge) or top of the soil surface (pre-emerge) was 40-45 cm below the nozzle. Pressurized air was used to force the test solution through the nozzle as it was mechanically advanced (via electrically driven chain drive) over the top of all test plants/pots. This application simulates a typical commercial field herbicide application.
(§3) In the post-emerge test, a commercial non-ionic surfactant was also included (0.25% v/v) to enhance wetting of the leaf surfaces of target plants. Immediately after application, test units of the pre-emerge applications were watered at the soil surface to incorporate the test materials. Subsequently, these test units were bottom-watered. Post-emerge test units were always bottom-watered.
(§4) At 14 days after application of the test materials, phytotoxicity ratings were recorded. A rating scale of 0-100 was used as previously described in Research Methods in Weed Science, 2nd edition, B. Truelove, Ed., Southern Weed Science Society, Auburn University, Auburn, Ala. 1977. Briefly, “0” corresponds to no damage and “100” corresponds to complete death of all plants in the test unit. This scale was used both to determine efficacy against weed species and damage to crop species. Herbicide activity data for various compounds of this invention, which are shown by compound No. in Tables 1-8, are shown in Tables 11 and 12.

[2] = test system: lambsquarters (Chenopodium album, CHEAL); test: as above; conditions: for Pre-emerge herbicidal activity, phytotoxicity rating CHEAL: rating scale 0-100, 14 days after application; for phytotoxicity rating CHEAL: pre-emerge, 14 days after application, scale 0-100
Source text: as §1, §2
(§5) All test compounds Were dissolved in acetone and applied to the test units in a volume of 187 l /ha. Test materials were applied at rates ranging from 15 g ai/ha to 1000 g ai/ha using a track sprayer equipped with a TJ8001E even flow flat fan spray nozzle. Plants were arranged on a shelf so that the top of the canopy (post-emerge) or top of the soil surface (pre-emerge) was 40-45 cm below the nozzle. Pressurized air was used to force the test solution through the nozzle as it was mechanically advanced (via electrically driven chain drive) over the top of all test plants/pots. This application simulates a typical commercial field herbicide application.
as §3, §4

[3] = test system: ivyleaf morningglory (Ipomoea hederacea, IPOHE); test: as above; conditions: for Pre-emerge herbicidal activity, phytotoxicity rating IPOHE: rating scale 0-100, 14 days after application; for phytotoxicity rating IPOHE: pre-emerge, 14 days after application, scale 0-100
Source text: as §1, §2, §5, §3, §4

[4] = test system: green foxtail (Setaria viridis, SETVI); test: as above; conditions: for Pre-emerge herbicidal activity, phytotoxicity rating SETVI: rating scale 0-100, 14 days after application; for phytotoxicity rating SETVI: pre-emerge, 14 days after application, scale 0-100
Source text: as §1, §2, §5, §3, §4

[5] = test system: large crabgrass (Digitaria sanguinalis, DIGSA); test: as above; conditions: for Pre-emerge herbicidal activity, phytotoxicity rating DIGSA: rating scale 0-100, 14 days after application; for phytotoxicity rating DIGSA: pre-emerge, 14 days after application, scale 0-100
Source text: as §1, §2, §5, §3, §4

[6] = test system: velvetleaf (Abutilon theophrasti, ABUTH); test: as above; conditions: for Pre-emerge herbicidal activity, phytotoxicity rating ABUTH: rating scale 0-100, 14 days after application; for phytotoxicity rating ABUTH: pre-emerge, 14 days after application, scale 0-100
Source text: as §1, §2, §5, §3, §4

[7] = test system: sicklepod (Cassia obtusifolia, CASOB); test: as above; conditions: for Pre-emerge herbicidal activity, phytotoxicity rating CASOB: rating scale 0-100, 14 days after application; for phytotoxicity rating CASOB: pre-emerge, 14 days after application, scale 0-100
Source text: as §1, §2, §5, §3, §4

[8] = test system: barnyardgrass (Echinochloa crus-galli, ECHCG); test: as above; conditions: for Pre-emerge herbicidal activity, phytotoxicity rating ECHCG: rating scale 0-100, 14 days after application; for phytotoxicity rating ECHCG: pre-emerge, 14 days after application, scale 0-100
Source text: as §1, §2, §5, §3, §4

[9] = test system: lambsquarters (Chenopodium album, CHEAL); test: Post-emerge test, greenhouse herbicide activity screening; conditions: 14 days after application; for Post-emerge Herbicidal Activity, phytotoxicity rating CHEAL: rating scale 0-100 (0 no damage, 100 complete death); for CHEAL phytotoxicity rating: post-emerge, rating scale 0-100
Source text: as §1, §2, §5, §3, §4

[10] = test system: ivyleaf morningglory (Ipomoea hederacea, IPOHE); test: as above; conditions: 14 days after application; for Post-emerge Herbicidal Activity, phytotoxicity rating IPOHE: rating scale 0-100 (0 no damage, 100 complete death); for IPOHE phytotoxicity rating: post-emerge, rating scale 0-100
Source text: as §1, §2, §5, §3, §4

[11] = test system: green foxtail (Setaria viridis, SETVI); test: as above; conditions: 14 days after application; for Post-emerge Herbicidal Activity, phytotoxicity rating SETVI: rating scale 0-100 (0 no damage, 100 complete death); for SETVI phytotoxicity rating: post-emerge, rating scale 0-100
Source text: as §1, §2, §5, §3, §4

[12] = test system: large crabgrass (Digitaria sanguinalis, DIGSA); test: as above; conditions: 14 days after application; for Post-emerge Herbicidal Activity, phytotoxicity rating DIGSA: rating scale 0-100 (0 no damage, 100 complete death); for DIGSA phytotoxicity rating: post-emerge, rating scale 0-100
Source text: as §1, §2, §5, §3, §4

[13] = test system: redroot pigweed (Amaranthus retroflexus, AMARE); test: as above; conditions: 14 days after application; for Post-emerge Herbicidal Activity, phytotoxicity rating AMARE: rating scale 0-100 (0 no damage, 100 complete death); for AMARE phytotoxicity rating: post-emerge, rating scale 0-100
Source text: as §1, §2, §5, §3, §4

[14] = test system: velvetleaf (Abutilon theophrasti, ABUTH); test: as above; conditions: 14 days after application; for Post-emerge Herbicidal Activity, phytotoxicity rating ABUTH: rating scale 0-100 (0 no damage, 100 complete death); for ABUTH phytotoxicity rating: post-emerge, rating scale 0-100
Source text: as §1, §2, §5, §3, §4

[15] = test system: sicklepod (Cassia obtusifolia, CASOB); test: as above; conditions: 14 days after application; for Post-emerge Herbicidal Activity, phytotoxicity rating CASOB: rating scale 0-100 (0 no damage, 100 complete death); for CASOB phytotoxicity rating: post-emerge, rating scale 0-100
Source text: as §1, §2, §5, §3, §4

[16] = test system: barnyardgrass (Echinochloa crus-galli, ECHCG); test: as above; conditions: 14 days after application; for Post-emerge Herbicidal Activity, phytotoxicity rating ECHCG: rating scale 0-100 (0 no damage, 100 complete death); for ECHCG phytotoxicity rating: post-emerge, rating scale 0-100
Source text: as §1, §2, §5, §3, §4

`CCOC(=O)C(Cl)Cc1c(OC)c(Cl)cc(F)c1-n1c(=O)cc(C(F)(F)F)n(C)c1=O` (single isomer, unassigned) [Compound 14-5, 3-{4-chloro-2-[2-chloro-2-(ethoxycarbonyl)ethyl]-6-fluoro-3-methoxyphenyl}-1-methyl-6-trifluoromethyl-2,4(1H, 3H)-pyrimidinedione] was tested, and the “Pre-emerge herbicidal activity, phytotoxicity rating AMARE” value ([1]; 63 g ai/ha) was 70, the “Pre-emerge herbicidal activity, phytotoxicity rating AMARE” value ([1]; 250 g ai/ha) was 100 and the “Pre-emerge herbicidal activity, phytotoxicity rating CHEAL” value ([2]; 63 g ai/ha) was 70. The “Pre-emerge herbicidal activity, phytotoxicity rating CHEAL” value ([2]; 250 g ai/ha) was 100, the “Pre-emerge herbicidal activity, phytotoxicity rating IPOHE” value ([3]; 63 g ai/ha) was 20 and the “Pre-emerge herbicidal activity, phytotoxicity rating IPOHE” value ([3]; 250 g ai/ha) was 30. The “Pre-emerge herbicidal activity, phytotoxicity rating SETVI” value ([4]; 63 g ai/ha) was 10, the “Pre-emerge herbicidal activity, phytotoxicity rating SETVI” value ([4]; 250 g ai/ha) was 60 and the “Pre-emerge herbicidal activity, phytotoxicity rating DIGSA” value ([5]; 63 g ai/ha) was 20. The “Pre-emerge herbicidal activity, phytotoxicity rating DIGSA” value ([5]; 250 g ai/ha) was 95, the “Pre-emerge herbicidal activity, phytotoxicity rating ABUTH” value ([6]; 63 g ai/ha) was 100 and the “Pre-emerge herbicidal activity, phytotoxicity rating ABUTH” value ([6]; 250 g ai/ha) was 100. The “Pre-emerge herbicidal activity, phytotoxicity rating CASOB” value ([7]; 63 g ai/ha) was 0, the “Pre-emerge herbicidal activity, phytotoxicity rating CASOB” value ([7]; 250 g ai/ha) was 10 and the “Pre-emerge herbicidal activity, phytotoxicity rating ECHCG” value ([8]; 63 g ai/ha) was 0. For the same compound, the “Pre-emerge herbicidal activity, phytotoxicity rating ECHCG” value ([8]; 250 g ai/ha) was 40, the “Post-emerge Herbicidal Activity, phytotoxicity rating CHEAL” value ([9]; Rate 63 g ai/ha) was 100 and the “Post-emerge Herbicidal Activity, phytotoxicity rating CHEAL” value ([9]; Rate 250 g ai/ha) was 100. For the same compound, the “Post-emerge Herbicidal Activity, phytotoxicity rating IPOHE” value ([10]; Rate 63 g ai/ha) was 30, the “Post-emerge Herbicidal Activity, phytotoxicity rating IPOHE” value ([10]; Rate 250 g ai/ha) was 100 and the “Post-emerge Herbicidal Activity, phytotoxicity rating SETVI” value ([11]; Rate 63 g ai/ha) was 60. The “Post-emerge Herbicidal Activity, phytotoxicity rating SETVI” value ([11]; Rate 250 g ai/ha) was 95, the “Post-emerge Herbicidal Activity, phytotoxicity rating DIGSA” value ([12]; Rate 63 g ai/ha) was 95 and the “Post-emerge Herbicidal Activity, phytotoxicity rating DIGSA” value ([12]; Rate 250 g ai/ha) was 100. The “Post-emerge Herbicidal Activity, phytotoxicity rating AMARE” value ([13]; Rate 63 g ai/ha) was 100, the “Post-emerge Herbicidal Activity, phytotoxicity rating AMARE” value ([13]; Rate 250 g ai/ha) was 100 and the “Post-emerge Herbicidal Activity, phytotoxicity rating ABUTH” value ([14]; Rate 63 g ai/ha) was 100. For the same compound, the “Post-emerge Herbicidal Activity, phytotoxicity rating ABUTH” value ([14]; Rate 250 g ai/ha) was 100, the “Post-emerge Herbicidal Activity, phytotoxicity rating CASOB” value ([15]; Rate 63 g ai/ha) was 10 and the “Post-emerge Herbicidal Activity, phytotoxicity rating CASOB” value ([15]; Rate 250 g ai/ha) was 50. For the same compound, the “Post-emerge Herbicidal Activity, phytotoxicity rating ECHCG” value ([16]; Rate 63 g ai/ha) was 40 and the “Post-emerge Herbicidal Activity, phytotoxicity rating ECHCG” value ([16]; Rate 250 g ai/ha) was 100.

With `Cn1c(C(F)(F)F)cc(=O)n(-c2ccc(Cl)cc2NC(=O)c2ccc3ccccc3c2)c1=O` [Compound 2-131, 3-[4-chloro-2-(2-naphthoylamino)phenyl]-1-methyl-6-trifluoromethyl-2,4(1H, 3H)-pyrimidinedione] the “phytotoxicity rating AMARE” value ([1]; 63 g ai/ha) was 90, the “phytotoxicity rating AMARE” value ([1]; 250 g ai/ha) was 95 and the “phytotoxicity rating CHEAL” value ([2]; 63 g ai/ha) was 90. The “phytotoxicity rating CHEAL” value ([2]; 250 g ai/ha) was 100, the “phytotoxicity rating IPOHE” value ([3]; 63 g ai/ha) was 30 and the “phytotoxicity rating IPOHE” value ([3]; 250 g ai/ha) was 85. The “phytotoxicity rating SETVI” value ([4]; 63 g ai/ha) was 40, the “phytotoxicity rating SETVI” value ([4]; 250 g ai/ha) was 90 and the “phytotoxicity rating DIGSA” value ([5]; 63 g ai/ha) was 40. For the same compound, the “phytotoxicity rating DIGSA” value ([5]; 250 g ai/ha) was 80, the “phytotoxicity rating ABUTH” value ([6]; 63 g ai/ha) was 85 and the “phytotoxicity rating ABUTH” value ([6]; 250 g ai/ha) was 100. The “phytotoxicity rating CASOB” value ([7]; 63 g ai/ha) was 60, the “phytotoxicity rating CASOB” value ([7]; 250 g ai/ha) was 95 and the “phytotoxicity rating ECHCG” value ([8]; 63 g ai/ha) was 10. For the same compound, the “phytotoxicity rating ECHCG” value ([8]; 250 g ai/ha) was 60, the CHEAL phytotoxicity rating ([9]; 63 g ai/ha) was 100 and the CHEAL phytotoxicity rating ([9]; 250 g ai/ha) was 100. For the same compound, the IPOHE phytotoxicity rating ([10]; 63 g ai/ha) was 100, the IPOHE phytotoxicity rating ([10]; 250 g ai/ha) was 100 and the SETVI phytotoxicity rating ([11]; 63 g ai/ha) was 70. The SETVI phytotoxicity rating ([11]; 250 g ai/ha) was 90, the DIGSA phytotoxicity rating ([12]; 63 g ai/ha) was 30 and the DIGSA phytotoxicity rating ([12]; 250 g ai/ha) was 70. It also gave an AMARE phytotoxicity rating ([13]; 63 g ai/ha) of 100, an AMARE phytotoxicity rating ([13]; 250 g ai/ha) of 100 and an ABUTH phytotoxicity rating ([14]; 63 g ai/ha) of 100. For the same compound, the ABUTH phytotoxicity rating ([14]; 250 g ai/ha) was 100, the CASOB phytotoxicity rating ([15]; 63 g ai/ha) was 80 and the CASOB phytotoxicity rating ([15]; 250 g ai/ha) was 100. It also gave an ECHCG phytotoxicity rating ([16]; 63 g ai/ha) of 30 and an ECHCG phytotoxicity rating ([16]; 250 g ai/ha) of 60.
